Patent US11739074B2, “Ras inhibitors” (Revolution Medicines, Inc., priority 2019, dated 2023)
pEC50, pIC50: −log10 of the molar value. Read-outs that look alike come from different tables or passages of the source.

Experiments:
Type in all cases: cell-based
[1] = test system: NCI-H358 (K-Ras G12C); assay: CellTiter-Glo cell viability assay, H358; settings: Homo sapiens, NCI-H358, 120 h
Method: Determination of Cell Viability in RAS Mutant Cancer Cell Lines
Protocol: CellTiter-Glo® Cell Viability Assay
Note—The following protocol describes a procedure for monitoring cell viability of K-Ras mutant cancer cell lines in response to a compound of the invention. Other RAS isoforms may be employed, though the number of cells to be seeded will vary based on cell line used.
Test compounds (132.5 nL) were directly dispensed into the assay plates containing cells. […] On day 5, assay plates and their contents were equilibrated to room temperature for approximately 30 minutes. […] Luminescence was measured using the PerkinElmer Enspire. Data were normalized by the following: (Sample signal/Avg. DMSO)*100. The data were fit using a four-parameter logistic fit.

[2] = test system: AsPC-1 (K-Ras G12D); assay: CellTiter-Glo cell viability assay, AsPC-1; settings: Homo sapiens, ASPC1, 120 h
Procedure, shortened: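 Test compounds were dispensed directly onto seeded cells, and on day 5 plates were brought to room temperature for about 30 minutes before CellTiter-Glo luminescence was read. Signals were expressed as percent of the mean DMSO control and fitted with a four-parameter logistic model.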

[3] = test system: AsPC-1 (K-Ras G12D); assay: Potency assay: pERK in AsPC-1 cells; settings: Homo sapiens, ASPC1, read-out: pERK EC50 (AsPC-1 KRAS G12D)
[4] = read-out: H358 Cell Viability IC50, NCI-H358, K-Ras G12C, 5-day treatment
[5] = read-out: AsPC-1 Cell Viability IC50, AsPC-1, K-Ras G12D, 5-day treatment
[6] = NCI-H358, K-Ras G12C, 5-day treatment, read-out: H358 Cell Viability IC50
[7] = AsPC-1, K-Ras G12D, 5-day treatment, read-out: AsPC-1 Cell Viability IC50

Row | SMILES | pIC50 [1, 4] | pIC50 [2, 5] | pEC50 [3] | pIC50 [1, 6] | pIC50 [2, 7]
1 | CCn1c(-c2cccnc2[C@H](C)OC)c2c3cc(ccc31)-c1cc(O)cc(c1)C[C@H](NC(=O)[C@H](C(C)C)N(C)C(=O)CN(C)C(=O)[C@H]1CN1CC1COC1)C(=O)N1CCC[C@H](N1)C(=O)OCC(C)(C)C2 (stereo partly drawn) [Compound 277] | 7.00 to 8.00 | 6.00 to 7.00 | > 5.30 | – | –
2 | CCn1c(-c2cccnc2[C@H](C)OC)c2c3cc(ccc31)-c1cc(O)cc(c1)C[C@H](NC(=O)[C@H](C(C)C)N(C)C(=O)CN(C)C(=O)[C@@H]1N[C@@H]1C1CCC1)C(=O)N1CCC[C@H](N1)C(=O)OCC(C)(C)C2 [Compound 287] | 7.00 to 8.00 | 6.00 to 7.00 | > 5.30 | – | –
3 | CCn1c(-c2cccnc2[C@H](C)OC)c2c3cc(ccc31)-c1cc(O)cc(c1)C[C@H](NC(=O)[C@H](C(C)C)N(C)C(=O)CN(C)C(=O)[C@@H]1N[C@H]1COC)C(=O)N1CCC[C@H](N1)C(=O)OCC(C)(C)C2 [Compound 85] | 7.00 to 8.00 | 5.00 to 6.00 | > 5.30 | – | –
4 | CCn1c(-c2cnccc2COC)c2c3cc(ccc31)-c1cc(O)cc(c1)C[C@H](NC(=O)[C@H](C(C)C)N(C)C(=O)CN(C)C(=O)[C@@H]1N[C@H]1c1ccccc1)C(=O)N1CCC[C@H](N1)C(=O)OCC(C)(C)C2 [Compound 11] | 6.00 to 7.00 | 5.00 to 6.00 | > 5.30 | – | –
5 | CCn1c(-c2cccnc2[C@H](C)OC)c2c3cc(ccc31)-c1cc(O)cc(c1)C[C@H](NC(=O)[C@H](C(C)C)N(C)C(=O)[C@@]1(C)CCCN1C(=O)[C@@H]1CN1)C(=O)N1CCC[C@H](N1)C(=O)OCC(C)(C)C2 [Compound 241] | – | – | – | > 8.00 | 6.00 to 7.00
6 | CCn1c(-c2cnccc2COC)c2c3cc(ccc31)-c1cc(O)cc(c1)C[C@H](NC(=O)[C@H](C(C)C)N(C)C(=O)CCN(C)C(=O)[C@H]1CN1)C(=O)N1CCC[C@H](N1)C(=O)OCC(C)(C)C2 (single isomer, unassigned) [Compound 41] | – | – | – | 7.00 to 8.00 | < 5.00
7 | CCn1c(-c2cnccc2COC)c2c3cc(ccc31)-c1cccc(c1)C[C@H](NC(=O)[C@H](C(C)C)N(C)C(=O)CCN=C=NCc1ccc(OC)cc1)C(=O)N1CCC[C@H](N1)C(=O)OCC(C)(C)C2 (atropisomer, axis not shown) [18 A and B] | – | – | – | 5.00 to 6.00 | 5.00 to 6.00
8 | CCn1c(-c2cnccc2COC)c2c3cc(ccc31)-c1cccc(c1)C[C@H](NC(=O)[C@H](C(C)C)N(C)C(=O)CCN=C=Nc1ccc(N(C)C)cc1)C(=O)N1CCC[C@H](N1)C(=O)OCC(C)(C)C2 [Compound 66] | – | – | – | 5.00 to 6.00 | < 5.00
9 | CCn1c(-c2cnccc2COC)c2c3cc(ccc31)-c1cccc(c1)C[C@H](NC(=O)[C@H](C(C)C)N(C)C(=O)CCN=C=NCCc1cccs1)C(=O)N1CCC[C@H](N1)C(=O)OCC(C)(C)C2 [68 A and B] | – | – | – | 5.00 to 6.00 | 5.00 to 6.00
10 | CCn1c(-c2cnccc2COC)c2c3cc(ccc31)-c1cc(O)cc(c1)C[C@H](NC(=O)[C@H](C(C)C)N(C)C(=O)CCN(C)C(=O)[C@@H]1CN1)C(=O)N1CCC[C@H](N1)C(=O)OCC(C)(C)C2 [Compound 40] | – | – | – | 6.00 to 7.00 | < 5.00
11 | CCn1c(-c2cnccc2COC)c2c3cc(ccc31)-c1cc(O)cc(c1)C[C@H](NC(=O)[C@H](C(C)C)N(C)C(=O)C1CN(C(=O)[C@H]3CN3)C1)C(=O)N1CCC[C@H](N1)C(=O)OCC(C)(C)C2 [Compound 5] | – | – | – | 7.00 to 8.00 | < 5.00
12 | CCn1c(-c2cnccc2COC)c2c3cc(ccc31)-c1cc(O)cc(c1)C[C@H](NC(=O)[C@H](C(C)C)N(C)C(=O)C1CN(C(=O)[C@@H]3CN3)C1)C(=O)N1CCC[C@H](N1)C(=O)OCC(C)(C)C2 [Compound 6] | – | – | – | 6.00 to 7.00 | < 5.00
13 | CCn1c(-c2cnccc2COC)c2c3cc(ccc31)-c1cccc(c1)C[C@H](NC(=O)[C@H](C(C)C)N(C)C(=O)CCN=C=NCCOC)C(=O)N1CCC[C@H](N1)C(=O)OCC(C)(C)C2 [23 A and B] | – | – | – | 5.00 to 6.00 | 5.00 to 6.00
14 | CCn1c(-c2cnccc2COC)c2c3cc(ccc31)-c1cc(O)cc(c1)C[C@H](NC(=O)[C@H](C(C)C)N(C)C(=O)C1CCN(C(=O)[C@H]3CN3)CC1)C(=O)N1CCC[C@H](N1)C(=O)OCC(C)(C)C2 [Compound 3] | – | – | – | 6.00 to 7.00 | < 5.00
15 | CCn1c(-c2cccnc2[C@H](C)OC)c2c3cc(ccc31)-c1cc(O)cc(c1)C[C@H](NC(=O)[C@H](C(C)C)N(C)C(=O)CN(C)C(=O)[C@H]1CN1CCOC)C(=O)N1CCC[C@H](N1)C(=O)OCC(C)(C)C2 (stereo partly drawn) [Compound 159] | > 8.00 | 6.00 to 7.00 | – | – | –
16 | CCn1c(-c2cnccc2COC)c2c3cc(ccc31)-c1cc(O)cc(c1)C[C@H](NC(=O)[C@H](C(C)C)N(C)C(=O)N1CCCN(C(=O)[C@@H]3CN3)CC1)C(=O)N1CCC[C@H](N1)C(=O)OCC(C)(C)C2 [Compound 45] | – | – | – | 6.00 to 7.00 | < 5.00
17 | CCn1c(-c2cnccc2COC)c2c3cc(ccc31)-c1cccc(c1)C[C@H](NC(=O)[C@H](C(C)C)N(C)C(=O)CCN=C=NCc1ccccc1)C(=O)N1CCC[C@H](N1)C(=O)OCC(C)(C)C2 [19 A and B] | – | – | – | 5.00 to 6.00 | 6.00 to 7.00
18 | CCn1c(-c2cnccc2COC)c2c3cc(ccc31)-c1cc(O)cc(c1)C[C@H](NC(=O)[C@H](C(C)C)N(C)C(=O)[C@H]1CCN(C(=O)[C@@H]3CO3)C1)C(=O)N1CCC[C@H](N1)C(=O)OCC(C)(C)C2 [Example 31, (3S)—N-((2S)-1-(((6^3S,4S)-1^1-ethyl-2^5-hydroxy-1^2-(4-(methoxymethyl)pyridin-3-yl)-10,10-dimethyl-5,7-dioxo-6^1,6^2,6^3,6^4,6^5,6^6-hexahydro-1^1H-8-oxa-1(5,3)-indola-6(1,3)-pyridazina-2(1,3)-benzenacycloundecaphane-4-yl)amino)-3-methyl-1-oxobutan-2-yl)-N-methyl-1-((S)-oxirane-2-carbonyl)pyrrolidine-3-carboxamide] | – | – | – | 5.00 to 6.00 | < 5.00
19 | CCn1c(-c2cnccc2COC)c2c3cc(ccc31)-c1cc(O)cc(c1)C[C@H](NC(=O)[C@H](C(C)C)N(C)C(=O)N1CCCN(C(=O)[C@H]3CN3)CC1)C(=O)N1CCC[C@H](N1)C(=O)OCC(C)(C)C2 [Compound 44] | – | – | – | > 8.00 | 5.00 to 6.00
20 | CCn1c(-c2cnccc2COC)c2c3cc(ccc31)-c1cccc(c1)C[C@H](NC(=O)[C@H](C(C)C)N(C)C(=O)CCN=C=NCc1c(OC)cccc1OC)C(=O)N1CCC[C@H](N1)C(=O)OCC(C)(C)C2 [62 A and B] | – | – | – | 5.00 to 6.00 | 5.00 to 6.00
21 | CCn1c(-c2cnccc2COC)c2c3cc(ccc31)-c1cc(O)cc(c1)C[C@H](NC(=O)[C@H](C(C)C)N(C)C(=O)c1ccc(NC(=O)[C@@H]3CN3)cn1)C(=O)N1CCC[C@H](N1)C(=O)OCC(C)(C)C2 [Compound 46] | – | – | – | 6.00 to 7.00 | < 5.00
22 | CCn1c(-c2cnccc2COC)c2c3cc(ccc31)-c1cc(O)cc(c1)C[C@H](NC(=O)[C@H](C(C)C)N(C)C(=O)C1CCN(C(=O)[C@@H]3CN3)CC1)C(=O)N1CCC[C@H](N1)C(=O)OCC(C)(C)C2 [Compound 4] | – | – | – | 6.00 to 7.00 | < 5.00
23 | CCn1c(-c2cnccc2COC)c2c3cc(ccc31)-c1cc(O)cc(c1)C[C@H](NC(=O)[C@H](C(C)C)N(C)C(=O)[C@H]1CCN(C(=O)[C@@H]3CN3)C1)C(=O)N1CCC[C@H](N1)C(=O)OCC(C)(C)C2 [Compound 2] | – | – | – | 7.00 to 8.00 | < 5.00
24 | CCn1c(-c2cnccc2COC)c2c3cc(ccc31)-c1cccc(c1)C[C@H](NC(=O)[C@H](C(C)C)N(C)C(=O)CCN=C=Nc1ccccc1OC)C(=O)N1CCC[C@H](N1)C(=O)OCC(C)(C)C2 [20 A and B] | – | – | – | 5.00 to 6.00 | < 5.00
25 | CCn1c(-c2cnccc2COC)c2c3cc(ccc31)-c1cccc(c1)C[C@H](NC(=O)[C@H](C(C)C)N(C)C(=O)CCN=C=Nc1ccc(OC)cc1OC)C(=O)N1CCC[C@H](N1)C(=O)OCC(C)(C)C2 [24 A and B] | – | – | – | 5.00 to 6.00 | < 5.00
26 | CCn1c(-c2cnccc2COC)c2c3cc(ccc31)-c1cccc(c1)C[C@H](NC(=O)[C@H](C(C)C)N(C)C(=O)CCN=C=Nc1ccc(N3CCOCC3)cc1)C(=O)N1CCC[C@H](N1)C(=O)OCC(C)(C)C2 [Compound 67] | – | – | – | < 5.00 | < 5.00
27 | CCn1c(-c2cccnc2[C@H](C)OC)c2c3cc(ccc31)-c1cc(O)cc(c1)C[C@H](NC(=O)[C@H](C(C)C)N(C)C(=O)CN(C)C(=O)[C@H]1N[C@@H]1C1CC1)C(=O)N1CCC[C@H](N1)C(=O)OCC(C)(C)C2 [Compound 136] | > 8.00 | – | > 5.30 | – | –
28 | CCn1c(-c2cnccc2COC)c2c3cc(ccc31)-c1cccc(c1)C[C@H](NC(=O)[C@H](C(C)C)N(C)C(=O)CCN=C=NCCCSC)C(=O)N1CCC[C@H](N1)C(=O)OCC(C)(C)C2 [16 A and B] | – | – | – | 5.00 to 6.00 | 5.00 to 6.00
